Results published in the NIST ThermoML archive (doi:10.1016/j.jct.2013.02.017).

Details: relaxation calorimetry - Quantum Design PPMS; for molar entropy: 101.33 kPa

O=P([O-])([O-])[O-].[Fe+3] [iron(III) phosphate]
Details	molar entropy [J/K/mol]
1 K, Crystal 2	0.001252
2 K, Crystal 2	0.01157
3 K, Crystal 2	0.0497
4 K, Crystal 2	0.1381
5 K, Crystal 2	0.2911
6 K, Crystal 2	0.5136
7 K, Crystal 2	0.8015
8 K, Crystal 2	1.143
9 K, Crystal 2	1.528
10 K, Crystal 2	1.948
11 K, Crystal 2	2.4
12 K, Crystal 2	2.878
13 K, Crystal 2	3.381
14 K, Crystal 2	3.904
15 K, Crystal 2	4.446
16 K, Crystal 2	5.012
17 K, Crystal 2	5.603
18 K, Crystal 2	6.223
19 K, Crystal 2	6.877
20 K, Crystal 2	7.545
25 K, Crystal 1	11.49
30 K, Crystal 1	14.26
35 K, Crystal 1	16.51
40 K, Crystal 1	18.7
45 K, Crystal 1	20.89
50 K, Crystal 1	23.09
55 K, Crystal 1	25.3
60 K, Crystal 1	27.52
65 K, Crystal 1	29.74
70 K, Crystal 1	31.97
75 K, Crystal 1	34.2
80 K, Crystal 1	36.44
85 K, Crystal 1	38.66
90 K, Crystal 1	40.88
95 K, Crystal 1	43.09
100 K, Crystal 1	45.3
110 K, Crystal 1	49.7
120 K, Crystal 1	54.04
130 K, Crystal 1	58.32
140 K, Crystal 1	62.54
150 K, Crystal 1	66.7
160 K, Crystal 1	70.79
170 K, Crystal 1	74.82
180 K, Crystal 1	78.8
190 K, Crystal 1	82.72
200 K, Crystal 1	86.59
210 K, Crystal 1	90.41
220 K, Crystal 1	94.19
230 K, Crystal 1	97.92
240 K, Crystal 1	101.61
250 K, Crystal 1	105.25
260 K, Crystal 1	108.86
270 K, Crystal 1	112.42
273.15 K, Crystal 1	113.53
280 K, Crystal 1	115.93
290 K, Crystal 1	119.41
298.15 K, Crystal 1	122.21
300 K, Crystal 1	122.84

Details	Triple point temperature [K]
Crystal 2	25
